# Measurements as given in paper PMC11873939, “Target Identification with Live-Cell Photoaffinity Labeling and Mechanism of Action Elucidation of ARN23765, a Highly Potent CFTR Corrector” (Journal of Medicinal Chemistry, 2025).
# Key:
# F508del-CFTR [1] = molecular target: T1, F508del-CFTR (Homo sapiens, UniProt P13569, DEL508-508); assay: HS-YFP functional assay in CFBE41o- cells stably overexpressing F508del-CFTR; format: cell-based; conditions: 24 h treatment; for EC50 / HS-YFP assay in CFBE41o- cells EC50: 3 nM-10 µM range; for HS-YFP assay in CFBE41o- cells Emax: values normalized to DMSO-incubated cells
# T1 construct: expressed in transfected cells
# T1 sequence (P13569 with tags, fused parts or gaps DEL508-508): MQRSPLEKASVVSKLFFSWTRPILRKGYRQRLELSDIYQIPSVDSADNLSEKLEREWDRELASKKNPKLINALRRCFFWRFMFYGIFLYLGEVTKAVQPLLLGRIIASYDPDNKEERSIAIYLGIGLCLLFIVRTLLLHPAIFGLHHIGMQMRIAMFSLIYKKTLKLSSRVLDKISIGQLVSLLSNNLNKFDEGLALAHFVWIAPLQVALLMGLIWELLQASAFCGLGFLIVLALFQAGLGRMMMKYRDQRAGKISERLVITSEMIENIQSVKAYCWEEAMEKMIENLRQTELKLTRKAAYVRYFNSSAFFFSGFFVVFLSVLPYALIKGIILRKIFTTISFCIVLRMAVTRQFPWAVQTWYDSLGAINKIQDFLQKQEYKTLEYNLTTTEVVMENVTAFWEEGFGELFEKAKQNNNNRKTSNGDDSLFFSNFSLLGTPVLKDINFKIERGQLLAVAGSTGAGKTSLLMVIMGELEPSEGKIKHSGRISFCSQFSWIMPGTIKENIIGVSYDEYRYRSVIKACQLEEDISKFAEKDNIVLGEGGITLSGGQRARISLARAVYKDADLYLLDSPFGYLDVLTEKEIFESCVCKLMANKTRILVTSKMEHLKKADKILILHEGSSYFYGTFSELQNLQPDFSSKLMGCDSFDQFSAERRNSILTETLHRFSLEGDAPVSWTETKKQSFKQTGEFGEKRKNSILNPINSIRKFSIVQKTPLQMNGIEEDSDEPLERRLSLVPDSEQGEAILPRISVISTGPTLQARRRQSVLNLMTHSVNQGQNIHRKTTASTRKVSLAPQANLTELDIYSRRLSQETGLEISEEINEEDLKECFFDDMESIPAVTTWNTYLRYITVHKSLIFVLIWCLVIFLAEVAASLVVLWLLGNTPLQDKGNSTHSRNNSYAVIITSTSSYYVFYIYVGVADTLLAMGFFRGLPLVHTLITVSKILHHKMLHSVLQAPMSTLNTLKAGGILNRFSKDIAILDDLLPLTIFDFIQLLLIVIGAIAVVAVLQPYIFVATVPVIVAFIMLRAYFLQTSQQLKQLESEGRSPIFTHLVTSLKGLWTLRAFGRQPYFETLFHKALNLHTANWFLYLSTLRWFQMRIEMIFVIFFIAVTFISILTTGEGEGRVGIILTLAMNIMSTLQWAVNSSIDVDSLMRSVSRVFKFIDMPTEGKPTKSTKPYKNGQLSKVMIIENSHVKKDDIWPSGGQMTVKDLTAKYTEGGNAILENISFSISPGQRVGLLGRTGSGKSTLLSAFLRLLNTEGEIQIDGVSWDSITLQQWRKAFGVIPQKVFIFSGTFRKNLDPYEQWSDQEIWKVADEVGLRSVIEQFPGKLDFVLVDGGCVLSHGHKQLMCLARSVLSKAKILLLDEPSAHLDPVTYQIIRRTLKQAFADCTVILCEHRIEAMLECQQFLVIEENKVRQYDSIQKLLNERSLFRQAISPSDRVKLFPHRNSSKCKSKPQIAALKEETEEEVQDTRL
# Experimental: These analogues were tested in the functional assay on the human bronchial epithelia-derived cell line, CFBE41o-, which stably overexpresses F508del-CFTR and the halide-sensitive yellow fluorescent protein (HS-YFP).[31] […]
# HS-YFP-based assay for CFTR activity
# Twenty-four hours after seeding on 96-well plates, CFBE41o- cells stably over-expressing F508del-CFTR and the HS-YFP were treated with test compounds at different concentrations in the 3 nM-10 µM range.1 Cells treated with vehicle alone (DMSO) and with ARN23765, respectively, served as negative and positive controls. The following day, cells were washed with PBS containing (in mM) 137 NaCl, 2.7 KCl, 8.1 Na2HPO4, 1.5 KH2PO4, 1.0 CaCl2, and 0.5 MgCl2. Cells were then incubated for 25 min with […] of PBS plus forskolin (20 µM) and VX-770 (1 µM) to maximally stimulate F508del-CFTR. Cells were then transferred to a microplate reader (FluoStar Galaxy; BMG Labtech, Offenburg, Germany) for CFTR activity determination. The plate reader was equipped with high-quality excitation (HQ500/20X: 500 ± 10 nm) and emission (HQ535/30M: 535 ± 15 nm) filters for YFP (Chroma Technology). Each assay comprised a continuous 14 s fluorescence reading, 2 s before and 12 s after injection of […] of an iodide-containing solution (PBS with Cl- replaced by I-; final I- concentration […]). Data were normalized to the initial background-subtracted fluorescence. To determine I- influx rate, the final 11 s of the data for each well were fitted with an exponential function to extrapolate initial slope (dF/dt). Reproducibility of results was confirmed by performing three independent experiments. […]
# CFTR = assay: Live-cell photoaffinity labeling in CFTR–/– CFBE41o- cells (control); format: binding, human; conditions: probe 1 μM, 2 h
# wt-CFTR = molecular target: T2, wt-CFTR (Homo sapiens, UniProt P13569); assay: Live-cell photoaffinity labeling, streptavidin pull-down and CFTR Western blot; format: binding; conditions: wt-CFTR CFBE41o- cells, probe 1 μM; for CFTR in streptavidin pull-down (WB) after PAL: 2 h, UV 365 nm
# T2 construct: expressed in transfected cells
# T2 sequence (P13569 whole entry): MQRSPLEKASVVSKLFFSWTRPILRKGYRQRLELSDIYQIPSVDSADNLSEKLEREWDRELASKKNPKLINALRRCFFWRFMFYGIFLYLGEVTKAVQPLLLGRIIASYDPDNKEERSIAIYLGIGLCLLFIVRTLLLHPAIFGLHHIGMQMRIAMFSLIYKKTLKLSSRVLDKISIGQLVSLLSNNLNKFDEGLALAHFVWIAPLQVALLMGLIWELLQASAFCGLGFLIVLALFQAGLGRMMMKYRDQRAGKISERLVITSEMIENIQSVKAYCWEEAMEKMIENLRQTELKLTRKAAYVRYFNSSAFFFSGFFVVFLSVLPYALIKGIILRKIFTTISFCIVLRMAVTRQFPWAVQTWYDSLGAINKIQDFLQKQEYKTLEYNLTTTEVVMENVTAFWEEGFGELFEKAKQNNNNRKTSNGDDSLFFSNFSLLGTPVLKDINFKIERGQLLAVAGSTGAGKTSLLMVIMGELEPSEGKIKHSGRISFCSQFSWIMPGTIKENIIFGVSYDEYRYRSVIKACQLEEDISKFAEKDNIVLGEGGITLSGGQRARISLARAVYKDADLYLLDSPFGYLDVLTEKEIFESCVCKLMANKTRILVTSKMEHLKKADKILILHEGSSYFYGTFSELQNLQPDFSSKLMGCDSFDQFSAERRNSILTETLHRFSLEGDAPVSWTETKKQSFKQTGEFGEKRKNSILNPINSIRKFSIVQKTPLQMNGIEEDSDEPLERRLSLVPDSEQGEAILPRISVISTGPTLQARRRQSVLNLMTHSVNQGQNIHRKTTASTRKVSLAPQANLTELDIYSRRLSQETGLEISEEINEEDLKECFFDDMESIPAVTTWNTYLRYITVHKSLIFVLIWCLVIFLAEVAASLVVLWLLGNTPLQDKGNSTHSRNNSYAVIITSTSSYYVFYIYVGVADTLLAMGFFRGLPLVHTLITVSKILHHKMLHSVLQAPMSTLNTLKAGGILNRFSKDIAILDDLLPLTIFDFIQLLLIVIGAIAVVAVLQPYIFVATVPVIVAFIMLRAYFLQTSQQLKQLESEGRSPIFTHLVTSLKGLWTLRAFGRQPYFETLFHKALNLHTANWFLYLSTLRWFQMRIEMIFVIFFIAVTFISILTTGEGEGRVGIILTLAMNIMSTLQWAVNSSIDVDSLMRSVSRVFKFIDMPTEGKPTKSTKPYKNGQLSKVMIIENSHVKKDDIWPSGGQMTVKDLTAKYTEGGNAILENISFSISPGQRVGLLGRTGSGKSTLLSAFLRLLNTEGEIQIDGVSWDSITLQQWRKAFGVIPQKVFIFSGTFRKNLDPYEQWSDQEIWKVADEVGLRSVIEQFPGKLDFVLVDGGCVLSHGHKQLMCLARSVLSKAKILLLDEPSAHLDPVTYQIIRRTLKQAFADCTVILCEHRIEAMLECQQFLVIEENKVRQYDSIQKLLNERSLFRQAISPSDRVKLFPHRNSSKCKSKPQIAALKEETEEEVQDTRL
# Experimental: (§1) Wt-CFTR or F508del-CFTR CFBE41o- cells were plated at 2–2.5 × 10^6 cells/plate in 6 cm diameter dishes. The day after, sodium butyrate (5–2.5 mM) was added for 24 h; next, the medium was exchanged with fresh one supplemented with DMSO (0.25%) (276855, Sigma-Aldrich) or probe (1 μM). For competition experiments, a 25-fold excess of ARN23765 (25 μM) was added 30 min before probe’s addition. For the analysis of “corrected” F508del-CFTR, F508del-CFTR CFBE41o- cells were kept at 27 °C for 24 h before adding the probes. Probes were incubated with cells for 2 h, then the medium was removed, and plates were washed twice with phosphate buffer saline (PBS). Cells were placed on ice and irradiated for 5 min at a wavelength of 365 nm using a 100-W UV-lamp (95–0127–02 model B100-AP, Analytik Jena). Cells were harvested with trypsin (T4299, Sigma-Aldrich), washed with PBS (D8537, Sigma-Aldrich), and pellets were stored at −80 °C until used, centrifuged at 300 × g and washed twice with PBS (D8537, Sigma-Aldrich). Pellets from in-cell photoaffinity labeling with alkyne-probes (PAP_1 and PAP_2) were lysed in PBS plus protease inhibitor cocktail (78429, Thermo Scientific) by sonication. The suspension was centrifuged at 800 × g for 20 min at 4 °C to discard nuclei and cell debris. The total extracted proteins were quantified with the bicinchoninic acid (BCA) protein assay (23225, Thermo Scientific) and subjected to CuAAC before proceeding with pull-down. Pellets from in-cell photoaffinity labeling with desthio-biotinylated (DS-biot) probes (PAP_1 DS-biot, PAP_2 DS-biot, PAP_N1 DS-biot, PAP_N2 DS-biot) were lysed with a modified RIPA buffer [50 mM tris-HCl pH 8, 150 mM NaCl, 0.5% Triton-X100, 0.2% SDS, 1 mM ethylenediaminetetraacetic acid (EDTA)] supplemented with protease inhibitor cocktail and centrifuged at 10.000× g for 10 min. The protein content in the supernatant was quantified by BCA protein assay. Protein lysate (200 μg) was diluted to 800 μL and the Triton-X100 percentage was reduced to 0.2% before proceeding to pull-down.
# Copper-catalyzed azide–alkyne cycloaddition (CuAAC) was performed according to a previously described protocol.[62] Briefly, to the protein preparation (250 μL at 1 mg/mL protein concentration) the following reagents were added at the indicated final concentrations: 100 μM 5/6-TAMRA-azide-desthiobiotin (CLK-1110–5, Jena Bioscience), 1.0 mM tris-(2-carbossietil)phosphine (TCEP, C4706, Sigma-Aldrich), 100 μM tris-[(1-benzyl-1H-1,2,3-triazol-4-yl)methyl]amine (TBTA, 678937, Sigma-Aldrich), 1.0 mM CuSO4.5H2O (Sigma), and 0.8% sodium dodecyl sulfate (SDS). TBTA was first dissolved in DMSO at 83.5 mM and then diluted with four volumes of tert-butanol. The reaction was mixed by vortexing and incubated for 1 h at 25 °C. After the reaction time, proteins were precipitated with 5 volumes of cold acetone overnight at −20 °C. Samples were centrifuged for 20 min at 20.000× g, and the pellets were washed with methanol, air-dried, and finally resuspended with 600 μL of 1% SDS. SDS concentration was then diluted to 0.2% with PBS before proceeding to pull-down.
# (§2) High capacity streptavidin agarose (20359, Thermo Scientific) (25 μL) was added to PAP-labeled cell extracts for 1 h at room temperature under gentle rotation. The streptavidin beads were collected by centrifugation and washed four times with lysis buffer. Resin-bound proteins were eluted with 45 μL of 5 mM biotin (B4501, Sigma-Aldrich) for 30 min at room temperature and analyzed with Western blot for CFTR expression. Input samples (4 and 8 μg for wt-CFTR and F508del-CFTR CFBE41o-, respectively) were collected immediately before incubation with streptavidin resin. Input and pulled-down samples were analyzed with WB as described in the supplementary methods.
# F508del-CFTR [2] = molecular target: T1, F508del-CFTR; assay: as above; format: binding; conditions: for CFTR forms in streptavidin pull-down (WB) after PAL: F508del-CFTR CFBE41o- cells kept at 27 °C for 24 h (low-temperature rescue) before PAL; for CFTR in streptavidin pull-down (WB) after PAL: F508del-CFTR CFBE41o- cells, probe 1 μM, 2 h, UV 365 nm
# Experimental: as §1, §2
smiles,measurement,setting,value
"C#Cc1ccc(O[C@H]2CCCc3c(C(F)(F)F)nn(-c4cccc(C(=O)N(C)c5ccc6c(c5)OC(F)(F)O6)c4)c32)cc1 [Compound 1, (S)-N-(2,2-Difluorobenzo[d][1,3]dioxol-5-yl)-3-(7-(4-ethynylphenoxy)-3-(trifluoromethyl)-4,5,6,7-tetrahydro-1H-indazol-1-yl)-N-methylbenzamide]",EC50,F508del-CFTR [1],3.3 nM
same,HS-YFP assay in CFBE41o- cells Emax,F508del-CFTR [1],3
"CN(C(=O)c1cccc(-n2nc(C(F)(F)F)c3c2[C@@H](Oc2ccc(C(=O)O)cc2)CCC3)c1)c1ccc(C2(C(F)(F)F)N=N2)cc1 [Compound 2, (S)-4-((1-(3-(Methyl(4-(3-(trifluoromethyl)-3H-diazirin-3-yl)phenyl)carbamoyl)phenyl)-3-(trifluoromethyl)-4,5,6,7-tetrahydro-1H-indazol-7-yl)oxy)benzoic Acid]",EC50,F508del-CFTR [1],24 nM
same,HS-YFP assay in CFBE41o- cells Emax,F508del-CFTR [1],1.2
same,"Effect in CFTR rescuing (HS-YFP assay, Figure S2)",F508del-CFTR [1]; vs DMSO,no significant effect
"C[C@H]1NC(=O)N[C@H]1CCCCCC(=O)NCCOCCOCCOCCn1cc(CCC2(CCNC(=O)c3ccc(O[C@H]4CCCc5c(C(F)(F)F)nn(-c6cccc(C(=O)N(C)c7ccc8c(c7)OC(F)(F)O8)c6)c54)cc3)N=N2)nn1 [PAP_1 DS-biot, N-(2,2-Difluorobenzo[d][1,3]dioxol-5-yl)-N-methyl-3-((S)-7-(4-((2-(3-(2-(1-(18-((4S,5R)-5-methyl-2-oxoimidazolidin-4-yl)-13-oxo-3,6,9-trioxa-12-azaoctadecyl)-1H-1,2,3-triazol-4-yl)ethyl)-3H-diazirin-3-yl)ethyl)carbamoyl)phenoxy)-3-(trifluoromethyl)-4,5,6,7-tetrahydro-1H-indazol-1-yl)benzamide]",CFTR in streptavidin pull-down (WB) after PAL,CFTR,did not detect CFTR
same,CFTR in streptavidin pull-down (WB) after PAL,wt-CFTR,consistently captured
same,CFTR forms in streptavidin pull-down (WB) after PAL,F508del-CFTR [2],bound and pulled down both F508del-CFTR immature (band B) and mature (band C) protein
same,CFTR in streptavidin pull-down (WB) after PAL,F508del-CFTR [2],consistently captured
same,EC50,F508del-CFTR [1],122 nM
same,HS-YFP assay in CFBE41o- cells Emax,F508del-CFTR [1],2.7
"C#CCCC1(CCNC(=O)c2ccc(O[C@H]3CCCc4c(C(F)(F)F)nn(-c5cccc(C(=O)N(C)c6ccc7c(c6)OC(F)(F)O7)c5)c43)cc2)N=N1 [PAP_1, (S)-3-(7-(4-((2-(3-(But-3-yn-1-yl)-3H-diazirin-3-yl)ethyl)carbamoyl)phenoxy)-3-(trifluoromethyl)-4,5,6,7-tetrahydro-1H-indazol-1-yl)-N-(2,2-difluorobenzo[d][1,3]dioxol-5-yl)-N-methylbenzamide]",EC50,F508del-CFTR [1],< 3 nM
same,HS-YFP assay in CFBE41o- cells Emax,F508del-CFTR [1],2.8
"C[C@H]1NC(=O)N[C@H]1CCCCCC(=O)NCCOCCOCCOCCn1cc(-c2ccc(O[C@H]3CCCc4c(C(F)(F)F)nn(-c5cccc(C(=O)N(C)c6ccc(C7(C(F)(F)F)N=N7)cc6)c5)c43)cc2)nn1 [PAP_2 DS-biot, N-Methyl-3-((S)-7-(4-(1-(18-((4S,5R)-5-methyl-2-oxoimidazolidin-4-yl)-13-oxo-3,6,9-trioxa-12-azaoctadecyl)-1H-1,2,3-triazol-4-yl)phenoxy)-3-(trifluoromethyl)-4,5,6,7-tetrahydro-1H-indazol-1-yl)-N-(4-(3-(trifluoromethyl)-3H-diazirin-3-yl)phenyl)benzamide]",CFTR in streptavidin pull-down (WB) after PAL,CFTR,did not detect CFTR
same,CFTR in streptavidin pull-down (WB) after PAL,wt-CFTR,consistently captured
same,CFTR forms in streptavidin pull-down (WB) after PAL,F508del-CFTR [2],bound and pulled down both F508del-CFTR immature (band B) and mature (band C) protein
same,CFTR in streptavidin pull-down (WB) after PAL,F508del-CFTR [2],consistently captured
same,EC50,F508del-CFTR [1],480 nM
same,HS-YFP assay in CFBE41o- cells Emax,F508del-CFTR [1],1.4
"C#Cc1ccc(O[C@H]2CCCc3c(C(F)(F)F)nn(-c4cccc(C(=O)N(C)c5ccc(C6(C(F)(F)F)N=N6)cc5)c4)c32)cc1 [PAP_2, (S)-3-(7-(4-Ethynylphenoxy)-3-(trifluoromethyl)-4,5,6,7-tetrahydro-1H-indazol-1-yl)-N-methyl-N-(4-(3-(trifluoromethyl)-3H-diazirin-3-yl)phenyl)benzamide]",CFTR in pull-down (WB) after PAL with alkyne probe and CuAAC DS-biot tagging,"wt-CFTR; UV irradiation, CuAAC",barely detect a band corresponding to CFTR
same,EC50,F508del-CFTR [1],385 nM
same,HS-YFP assay in CFBE41o- cells Emax,F508del-CFTR [1],2.1
"C[C@H]1NC(=O)N[C@H]1CCCCCC(=O)NCCOCCOCCOCCn1cc(CCC2(CCNC(=O)c3ccc(O[C@H]4CCCc5c(C(F)(F)F)nn(-c6cccc(C(=O)Nc7ccc8c(c7)OC(F)(F)O8)c6)c54)cc3)N=N2)nn1 [PAP_N1 DS-biot, N-(2,2-Difluorobenzo[d][1,3]dioxol-5-yl)-3-((S)-7-(4-((2-(3-(2-(1-(18-((4S,5R)-5-methyl-2-oxoimidazolidin-4-yl)-13-oxo-3,6,9-trioxa-12-azaoctadecyl)-1H-1,2,3-triazol-4-yl)ethyl)-3H-diazirin-3-yl)ethyl)carbamoyl)phenoxy)-3-(trifluoromethyl)-4,5,6,7-tetrahydro-1H-indazol-1-yl)benzamide]",CFTR in streptavidin pull-down (WB) after PAL,wt-CFTR,not pulled down
same,CFTR in streptavidin pull-down (WB) after PAL,F508del-CFTR [2],not pulled down
same,HS-YFP assay in CFBE41o- cells EC50,F508del-CFTR [1],devoid of activity
"C[C@H]1NC(=O)N[C@H]1CCCCCC(=O)NCCOCCOCCOCCn1cc(-c2ccc(O[C@H]3CCCc4c(C(F)(F)F)nn(-c5cccc(C(=O)Nc6ccc(C7(C(F)(F)F)N=N7)cc6)c5)c43)cc2)nn1 [PAP_N2 DS-biot, 3-((S)-7-(4-(1-(18-((4S,5R)-5-Methyl-2-oxoimidazolidin-4-yl)-13-oxo-3,6,9-trioxa-12-azaoctadecyl)-1H-1,2,3-triazol-4-yl)phenoxy)-3-(trifluoromethyl)-4,5,6,7-tetrahydro-1H-indazol-1-yl)-N-(4-(3-(trifluoromethyl)-3H-diazirin-3-yl)phenyl)benzamide]",CFTR in streptavidin pull-down (WB) after PAL,wt-CFTR,not pulled down
same,CFTR in streptavidin pull-down (WB) after PAL,F508del-CFTR [2],not pulled down
same,HS-YFP assay in CFBE41o- cells EC50,F508del-CFTR [1],devoid of activity
